Experimental data as given in patent EP4417602A1, “SUBSTITUTED PYRAZOLE CARBOXAMIDES, SALTS THEREOF AND THEIR USE AS HERBICIDALLY ACTIVE SUBSTANCES” (Bayer AG, priority 2023, dated 2024).

Legend:
ALOMY [1] = test: A. Herbicidal pre-emergence action on harmful plants (Tables A); format: in vivo, Alopecurus myosuroides
How it was run: (§1)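 Greenhouse pre-emergence test: compound applied to the soil surface at 1280 g/ha or below, and herbicidal effect rated visually at ca. 3 weeks on a 0–100% scale against untreated plants.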

MATIN [2] = test: as above; format: in vivo, Matricaria inodora; settings: application rate 1280 g/ha; visual grading after ca. 3 weeks vs untreated controls; 100% = plants have died off, 0% = as control plants
How it was run: as §1

VIOTR = test: C. Herbicidal pre-emergence action, weed and crop plants (Tables C); format: in vivo, Viola tricolor
How it was run: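 Seeds were sown in sandy loam and covered with soil. WP or EC formulations were sprayed onto the soil surface as aqueous suspension or emulsion with 0.5% additive, at rates of 320 g/ha or below. Plants were kept in a greenhouse, and damage was scored visually after about 3 weeks as % effect versus untreated controls (100% = dead, 0% = like control).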

BRSNW = test: F. Post-emergence effects on crop plants (Tables F); format: in vivo, Brassica napus; settings: application rate 320 g/ha, crop plant
How it was run: (§2)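 Plants were grown in sandy loam in a greenhouse and sprayed post-emergence at the single-leaf stage, 2–3 weeks after sowing. Visual damage was scored after ca. 3 weeks against untreated controls (0% = as control, 100% = dead).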

GLXMA [3] = test: D. Pre-emergence effects on crop plants (Tables D); format: in vivo, Glycine max; settings: crop plant
How it was run: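 Pre-emergence soil-surface treatment at 320 g/ha or lower, using wettable-powder or emulsifiable-concentrate formulations in water plus 0.5% additive, over freshly sown seeds in covered sandy loam. Damage was rated visually as percent versus untreated pots (100% = dead plants) after about 3 weeks of greenhouse growth.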

DIGSA = test: A. Herbicidal pre-emergence action on harmful plants (Tables A); format: in vivo, Digitaria sanguinalis
How it was run: as §1

GLXMA [4] = test: F. Post-emergence effects on crop plants (Tables F); format: in vivo, Glycine max; settings: crop plant
How it was run: as §2

ZEAMX = test: as above; format: in vivo, Zea mays; settings: crop plant
How it was run: as §2

ALOMY [5] = test: C. Herbicidal pre-emergence action, weed and crop plants (Tables C); format: in vivo, Alopecurus myosuroides
Excerpt: (§3) Seeds of mono- and dicotyledonous weed plants and crop plants were sown, in plastic or organic planting pots, in sandy loam and covered with soil. The compounds according to the invention, formulated in the form of wettable powders (WP) or as emulsifiable concentrates (EC), were applied to the surface of the covering soil as aqueous suspension or emulsion, with the addition of 0.5% of an additive, at an application rate of 6001 of water/ha (converted). Following treatment, the pots were placed in a greenhouse and kept under optimum growth conditions for the test plants. The visual grading of the damage to the test plants was carried out after ca. 3 weeks in comparison to untreated controls (herbicidal effect in percent (%): 100% effect = plants have died off, 0% effect = as control plants). Tables C1 to C12 below show the effects of selected compounds of the general formula (I) according to table 1 on various harmful plants and an application rate corresponding to 320 g/ha or below obtained by the experimental procedure mentioned above. Table C1: pre-emergence activity at 320g/ha against KCHSC in %

ECHCG [6] = test: A. Herbicidal pre-emergence action on harmful plants (Tables A); format: in vivo, Echinochloa crus-galli; settings: visual grading after ca. 3 weeks vs untreated controls, 100% = plants have died off, 0% = as control plants
How it was run: as §1

SETVI = test: as above; format: in vivo, Setaria viridis; settings: visual grading after ca. 3 weeks vs untreated controls, 100% = plants have died off, 0% = as control plants
How it was run: as §1

POAAN = test: as above; format: in vivo, Poa annua
How it was run: as §1

ECHCG [7] = test: C. Herbicidal pre-emergence action, weed and crop plants (Tables C); format: in vivo, Echinochloa crus-galli
Excerpt: as §3

MATIN [8] = test: as above; format: in vivo, Matricaria inodora; settings: application rate 320 g/ha; Table C8
Excerpt: as §3

[9] = application rate 320 g/ha, Table A9b
[10] = application rate 1280 g/ha, Table A9a
[11] = application rate 320 g/ha, Table C12a
[12] = application rate 80 g/ha, Table D4b
[13] = application rate 320 g/ha, Table A12b
[14] = application rate 1280 g/ha, Table A12a
[15] = application rate 80 g/ha, Table C2b
[16] = application rate 320 g/ha, Table C2a
[17] = application rate 80 g/ha, Table A7c
[18] = application rate 320 g/ha, Table A7b
[19] = application rate 1280 g/ha, visual grading after ca. 3 weeks vs untreated controls, 100% = plants have died off, 0% = as control plants
[20] = application rate 80 g/ha, Table C6b
[21] = application rate 320 g/ha, Table C6a
[22] = application rate 320 g/ha, Table D4a

Compound | pre-emergence activity against ALOMY (ALOMY [1]; [10]) [%] | pre-emergence activity against MATIN (MATIN [2]) [%] | post-emergence activity against BRSNW in % (BRSNW) [%] | pre-emergence activity against DIGSA (DIGSA; [13]) [%] | pre-emergence activity against DIGSA (DIGSA; [14]) [%] | post-emergence activity against GLXMA in % (GLXMA [4]; application rate 320 g/ha) [%] | post-emergence activity against ZEAMX in % (ZEAMX; application rate 80 g/ha) [%] | pre-emergence activity against ALOMY (ALOMY [5]; [15]) [%] | pre-emergence activity against ALOMY (ALOMY [5]; [16]) [%] | pre-emergence activity against ECHCG (ECHCG [6]; application rate 80 g/ha) [%] | pre-emergence activity against ECHCG (ECHCG [6]; application rate 320 g/ha) [%] | pre-emergence activity against ECHCG (ECHCG [6]; application rate 1280 g/ha) [%] | pre-emergence activity against SETVI (SETVI; application rate 320 g/ha) [%] | pre-emergence activity against SETVI (SETVI; application rate 1280 g/ha) [%] | pre-emergence activity against POAAN (POAAN; [17]) [%] | pre-emergence activity against POAAN (POAAN; [18]) [%] | pre-emergence activity against POAAN (POAAN; [19]) [%] | pre-emergence activity against ECHCG (ECHCG [7]; [20]) [%] | pre-emergence activity against ECHCG (ECHCG [7]; [21]) [%] | pre-emergence activity against GLXMA (GLXMA [3]; [22]) [%] | other results
CNC(=O)n1cc(C(=O)N2CCCC2Cc2ccccc2F)c(COC)n1 (racemic) [Example I-051] | 90 | 90 | 20 | 90 | 90 | 10 | 20 | 80 | 90 | 90 | 90 | 90 | 90 | 90 | 90 | 100 | 100 | 100 | 100 | – | pre-emergence activity against ALOMY (ALOMY [1]; [9]): 90%; pre-emergence activity against VIOTR (VIOTR; application rate 80 g/ha, Table C12b): 80%; pre-emergence activity against VIOTR (VIOTR; [11]): 80%; pre-emergence activity against GLXMA (GLXMA [3]; [12]): 0%
COCc1c(C(=O)N2CCCC2Cc2ccccc2Cl)cnn1C (racemic) [Example I-170] | 90 | 90 | 0 | – | – | – | 0 | 90 | 90 | 90 | 90 | 90 | 90 | 90 | 100 | 100 | 100 | 90 | 90 | 0 | pre-emergence activity against MATIN (MATIN [8]): 80%; post-emergence activity against GLXMA in % (GLXMA [4]; application rate 80 g/ha): 10%
COCc1nn(C)cc1C(=O)N1CCCC1C(O)c1ccccc1F (single isomer, unassigned) [Example I-053] | – | 90 | 20 | 90 | 90 | 20 | 0 | 80 | 90 | – | 90 | 90 | 90 | 90 | – | 90 | 100 | 90 | 100 | 10 | pre-emergence activity against MATIN (MATIN [8]): 80%; pre-emergence activity against GLXMA (GLXMA [3]; [12]): 0%
COCc1c(C(=O)N2CCCC2Cc2ccccc2F)cnn1C (single isomer, unassigned) [Example I-157] | 100 | 90 | 0 | 100 | 100 | 0 | 0 | – | 90 | 100 | 100 | 100 | 90 | 90 | 100 | 100 | 100 | – | 80 | 0 | pre-emergence activity against ALOMY (ALOMY [1]; [9]): 100%; pre-emergence activity against VIOTR (VIOTR; [11]): 90%; pre-emergence activity against DIGSA (DIGSA; application rate 80 g/ha, Table A12c): 100%; post-emergence activity against ZEAMX in % (ZEAMX; application rate 320 g/ha): 0%
